Results as given in paper PMC11069232, “NB compounds are potent and efficacious FOXM1 inhibitors in high-grade serous ovarian cancer cells” (Journal of Ovarian Research, 2024).
Read-outs that look alike come from different tables or passages of the source.

Assays:
Type in all cases: cell-based, human
[1] = system: OVCAR4 cells; assay: CyQuant cell viability assay, OVCAR4; settings: for Efficacy: % loss of cell viability at maximum tested concentration
Description: (§1) Cells were seeded into 96-well plates and treated with serial dilutions with the designated compounds for 72 h. Medium was then removed from the wells, and the cells were frozen at -80 °C for storage. After thawing, cell viability was analyzed using the CyQUANT™ Cell Proliferation Assay for cells in culture (Invitrogen, ThermoFisher Scientific, Waltham, MA, USA), according to manufacturer’s instructions. The CyQuant assay utilizes a DNA binding fluorescent dye, and the signal is proportional to the number of live cells, which thus reflects the effect of drug treatment on both cell proliferation and cytotoxicity. To integrate these two measures (proliferation and cytotoxicity) into one simple term, we refer to CyQuant data as a measure of cell viability. Fluorescence intensity was measured using POLARstar OPTIMA microplate multi-detection plate reader (BMG LabTech, Cary, NC, USA) with settings specified by the manufacturer’s instructions.

[2] = system: HGSOC cells; assay: CyQuant cell viability assay, HGSOC cells (CAOV3 and OVCAR4), summary in words; settings: summary of Table 3
Description: as §1
We investigated the effect of eight previously reported FOXM1 inhibitors on HGSOC cell viability. We utilized CAOV3 and OVCAR4 cells, which are validated to model HGSOC both in vitro and in vivo [38, 39], and measured the effect on cell viability using CyQuant assays. The data are summarized in Table 3 (drugs ordered alphabetically).

[3] = system: CAOV3 cells; assay: CyQuant cell viability assay, CAOV3; settings: for Efficacy: % loss of cell viability at maximum tested concentration
Description: as §1

[4] = system: FT282-C11 cells; assay: Caspase-3/7 activity assay, FT282-C11; settings: 24 h
Description: (§2) Cells were seeded into 6-well plates and treated with the designated compounds until the desired time point. Floating cells and trypsinized cells from the wells were collected, centrifuged at 500 × g, and washed with PBS. Cells were prepared using the Muse® Caspase-3/7 Kit (Luminex Corporation, Austin, TX, USA) according to the manufacturer’s instructions. Cells were analyzed by flow cytometry using the Guava® Muse® Cell Analyzer (Luminex Corporation).

[5] = system: FOXM1 targets (CCNB1, PLK1, AURKB, CDC25B); assay: Western blot of FOXM1 target proteins in HGSOC cells; settings: CAOV3 and OVCAR4; low micromolar treatments
Description: Whole cell proteins were extracted using radio-immunoprecipitation assay (RIPA) buffer (1X PBS, 1% NP-40, 0.5% sodium deoxycholate, 0.1% sodium dodecyl sulfate [SDS]) supplemented with protease and phosphatase inhibitors (Sigma-Aldrich). Briefly, media was removed from cells, cells were washed in ice cold PBS, and cells were lysed for 15 min in RIPA buffer, collected from the plate, and sonicated. The resulting extracts were centrifuged at 4 °C for 10 min at 16,100 × g to remove cell debris. In some cases (e.g., when measuring apoptotic markers such as cleaved PARP) floating cells were isolated in parallel and combined with the remainder of the cell sample prior to protein extraction. Protein concentrations were determined using the Pierce™ BCA Protein Assay Kit (Fisher Scientific, Waltham, MA, USA).
Equivalent amounts of protein per well, as determined by BCA assays, were loaded into Invitrogen™ NuPAGE™ 4–12%, Bis–Tris, 1.5 mm, mini protein gels (Fisher Scientific) or 7.5% Mini-Protein TGX precast protein gels (Bio-Rad, Hercules, CA, USA), and subsequently transferred to 0.45 µm polyvinylidene difluoride (PVDF) membranes (Millipore Sigma, St. Louis, MO, USA), using a wet transfer system. […] Quantification of protein expression was performed using Fiji software.

[6] = system: CAOV3 cells; assay: Incucyte kinetic analysis of live and dead cells; settings: 0.1 μM
Description: CAOV3 cells were seeded into 96-well plates in DMEM media containing Incucyte Nuclight Rapid Red Dye (Sartorius, Bohemia, NY, USA, Cat #4717) 1:1,000 (for live cell nuclear labeling) and Incucyte Cytotox Green Dye (Sartorius Cat #4633) 250 μM (for counting of dead cells). The following day, cells were treated with DMSO or NB compounds at 0.1, 0.5 or 1.0 μM concentrations. After treatment, cells were incubated in a Incucyte S3 time lapse imager (Sartorius). We obtained 5 pictures per well every 2 h, for a total of 72 h. Data were analyzed and plotted using Incucyte Live-cell Imaging and Analysis software.

[7] = system: OVCAR4 cells; assay: Caspase-3/7 activity assay, OVCAR4; settings: 24 h
Description: as §2

[8] = system: FT282-C11 cells; assay: CyQuant cell viability assay, FT282-C11 (immortalized FTE control); settings: for Efficacy: % loss of cell viability at maximum tested concentration; for Fold HGSOC cell selectivity: IC50 in FT282-C11 divided by the averaged IC50 values of CAOV3 and OVCAR4 cells
Description: as §1
To investigate the cancer cell selectivity of FOXM1 inhibitors, we utilized the immortalized (FTE) cell line FT282-C11 as non-malignant, cell of origin matched control. […] We tested a sub-set of FOXM1 inhibitors, including the three NB compounds and the two most widely used FOXM1 inhibitors, thiostrepton and FDI-6.

[9] = system: CAOV3 cells; assay: Drug washout study, CyQuant cell viability; settings: Fig. 7E-F
Description: as §1
To assess FOXM1 protein expression, cells were seeded into 6-well plates and treated with DMSO or NB compounds the next day. At 3- or 6-h post-treatment, media was aspirated and cells were washed with PBS and incubated with drug-free media until reaching 24, 48, or 72 h post the initial treatment. At time points post-treatment, protein was isolated from washout and no washout (i.e., continuous treatment) treatment conditions and used for western blotting. To assess the effects of drug washout on cell viability, cells were seeded in 96-well plates, treated as described above, and cell viability was assessed at 72 h post the initial treatment using CyQuant assays.

[10] = system: CAOV3 cells; assay: Caspase-3/7 activity assay, CAOV3; settings: 24 h
Description: as §2

[11] = OVCAR4, % loss of cell viability at the maximum tested drug concentration (printed in parentheses in the cell), Table 3
[12] = OVCAR4, CyQuant, Table 4, read-out: IC50
[13] = OVCAR4, cell viability, CyQuant, 72 h, Table 3, read-out: Potency [IC50 (µM)]
[14] = FT282-C11, CyQuant, Table 4, read-out: IC50
[15] = CAOV3, % loss of cell viability at the maximum tested drug concentration (printed in parentheses in the cell), Table 3
[16] = CAOV3, CyQuant, Table 4, read-out: IC50
[17] = CAOV3, cell viability, CyQuant, 72 h, Table 3, read-out: Potency [IC50 (µM)]
[18] = Homo sapiens, OVCAR-4, 72 h, read-out: Potency [IC50 (µM)]
[19] = Homo sapiens, OVCAR-4, read-out: % Efficacy (maximum dose)
[20] = Homo sapiens, Caov-3, 72 h, read-out: Potency [IC50 (µM)]
[21] = Homo sapiens, Caov-3, read-out: % Efficacy (maximum dose)

`CC[C@@]1([C@@H]2O[C@@H]([C@H]3O[C@@](O)(CO)[C@H](C)C[C@@H]3C)C[C@@H]2C)CC[C@H]([C@]2(C)CC[C@]3(C[C@H](O)[C@@H](C)[C@@H]([C@@H](C)[C@@H](OC)[C@H](C)C(=O)O)O3)O2)O1` [Monensin, monensin] was tested, and the Emax ([1]; Homo sapiens, OVCAR-4, OVCAR4, % loss of cell viability at the maximum tested drug concentration (printed in parentheses in the cell), Table 3, read-out: % Efficacy (maximum dose)) was 52%, the IC50 ([1]; Homo sapiens, OVCAR-4, OVCAR4, cell viability, CyQuant, 72 h, Table 3, read-out: Potency [IC50 (µM)]) was 0.024 µM and the “potency and efficacy on HGSOC cell viability, in words” value (from here on “potency and efficacy”) [2] was “high potency but low efficacy in one cell line (OVCAR4)”. It also gave an Emax ([3]; Homo sapiens, Caov-3, CAOV3, % loss of cell viability at the maximum tested drug concentration (printed in parentheses in the cell), Table 3, read-out: % Efficacy (maximum dose)) of 100% and an IC50 ([3]; Homo sapiens, Caov-3, CAOV3, cell viability, CyQuant, 72 h, Table 3, read-out: Potency [IC50 (µM)]) of 0.1 µM.
`CC[N+](C)(CC)CCCCCCOc1ccc(C(c2ccc(OCCCCCC[N+](C)(CC)CC)cc2)=C2C3C[C@H]4C[C@@H](C3)C[C@H]2C4)cc1` [NB-115] was tested, and the “caspase 3/7 activity” value [4] was “but not in FT282-C11 cells”, the “FOXM1 targets at the protein level” value [5] was “suppressed FOXM1 targets at the protein level” and the “cell proliferation compared to the DMSO control” value [6] was “increased proliferation”. For the same molecule, the Efficacy ([1]; OVCAR4, Table 4) was 85%, the “% Efficacy (maximum dose)” value [1, 11] was 85% (10 μM) and the IC50 [1, 12] was 0.56 µM. For the same molecule, the IC50 [1, 13] was 0.56 µM, the “caspase 3/7 activity” value [7] was “robust increase in caspase 3/7 activity” and the Efficacy ([8]; FT282-C11, Table 4) was 100%. For the same molecule, the IC50 [8, 14] was 3800 nM, the “selectivity for HGSOC cells” value ([8]; HGSOC cells vs FT282-C11, summary of Table 4) was “approximately tenfold” and the “Fold HGSOC cell selectivity” value [8] was 7.2. For the same molecule, the IC50 ([9]; continuous drug exposure 72 h, viability at 72 h, read-out: IC50 (CAOV3), no washout (72h)) was 830 nM, the IC50 ([9]; washout after 3 h, viability at 72 h post initial treatment, read-out: IC50 (CAOV3), 3 h drug exposure then washout (3h)) was 2150 nM and the IC50 ([9]; washout after 6 h, viability at 72 h post initial treatment, read-out: IC50 (CAOV3), 6 h drug exposure then washout (6h)) was 2300 nM. For the same molecule, the Efficacy ([3]; CAOV3, Table 4) was 100%, the “% Efficacy (maximum dose)” value [3, 15] was 100% (10 μM) and the IC50 [3, 16] was 0.49 µM. For the same molecule, the IC50 [3, 17] was 0.49 µM and the “caspase 3/7 activity” value [10] was “robust increase in caspase 3/7 activity”.
`c1ccc(Nc2cc3ccccc3c3ccccc23)cc1` [N-phenylphenanthren-9-amine (NP9), N-phenylphenanthren-9-amine] was tested, and the IC50 [1, 18] was 39 µM, the Emax [1, 19] was 100% and the “potency and efficacy” value [2] was “low potency”. It also gave an IC50 [3, 20] of 23 µM and an Emax [3, 21] of 85%.
`C=C(NC(=O)C(=C)NC(=O)c1csc(C2=N[C@@H]3c4csc(n4)[C@H]4NC(=O)c5csc(n5)[C@H]([C@](C)(O)[C@@H](C)O)NC(=O)[C@H]5CSC(=N5)/C(=C/C)NC(=O)[C@H]([C@@H](C)O)NC(=O)c5csc(n5)[C@]3(CC2)NC(=O)[C@H](C)NC(=O)C(=C)NC(=O)[C@H](C)NC(=O)[C@H]([C@@H](C)CC)N[C@@H]2C=Cc3c([C@H](C)O)cc(nc3[C@H]2O)C(=O)O[C@@H]4C)n1)C(N)=O` [Thiostrepton] showed an IC50 ([1]; Homo sapiens, OVCAR-4) of 0.98 µM, an IC50 [1, 18] of 0.98 µM and an Emax [1, 19] of 99%. The Efficacy ([1]; OVCAR4, Table 4) was 99%, the “potency and efficacy” value [2] was “high potency and efficacy” and the Efficacy ([8]; FT282-C11, Table 4) was 100%. For the same molecule, the IC50 ([8]; Homo sapiens) was 730 nM, the “Fold HGSOC cell selectivity” value [8] was 0.91 and the Efficacy ([3]; CAOV3, Table 4) was 93%. It also gave an IC50 ([3]; Homo sapiens, Caov-3) of 0.62 µM, an IC50 [3, 20] of 0.62 µM and an Emax [3, 21] of 93%.
With `Nc1c(C(=O)Nc2ccc(F)cc2)sc2nc(-c3cccs3)cc(C(F)(F)F)c12` [FDI-6] the Efficacy ([1]; OVCAR4, Table 4) was 61%, the “% Efficacy (maximum dose)” value [1, 11] was 61% (20 μM) and the IC50 [1, 12] was 4.7 µM. The IC50 [1, 13] was 4.7 µM, the “potency and efficacy” value [2] was “low potency” and the Efficacy ([8]; FT282-C11, Table 4) was 76%. The IC50 [8, 14] was 11000 nM, the “Fold HGSOC cell selectivity” value [8] was 1.6 and the Efficacy ([3]; CAOV3, Table 4) was 61%. For the same molecule, the “% Efficacy (maximum dose)” value [3, 15] was 61% (20 μM), the IC50 [3, 16] was 9.1 µM and the IC50 [3, 17] was 9.1 µM.
